T/C data for 23 molecules are collected here from PubChem BioAssay AID330 (DTP/NCI, 2004).

“And” between values parts separate entries of the source, which are not always exact repeats. Equal entries are not always repeated. Toxic doses and inconclusive results are not listed.

This assay has as its system P388 leukemia ip, CD2F1 mice, survival T/C. As to the kind of experiment: NCI In Vivo Anticancer Drug Screen. Data for tumor model P388 Leukemia (intraperitoneal) in CD2F1 (CDF1) mice. The note with it: endpoint: median survival time, higher = longer survival. Put shortly:
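Mice carrying the transplanted tumor received test compound or vehicle. Survival was recorded in each group, and the value is the treated-group measurement divided by that of the vehicle-treated control group.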

[1] abbreviates: dose: 50.0 mg/kg/injection, schedule: Q01DX005 (ip), vehicle: Klucel (hydroxypropylcellulose) (HPC).
Where [2] appears, read: dose: 100.0 mg/kg/injection, schedule: Q01DX005 (ip), vehicle: Klucel (hydroxypropylcellulose) (HPC).
Where [3] appears, read: dose: 200.0 mg/kg/injection, schedule: Q01DX005 (ip), vehicle: Klucel (hydroxypropylcellulose) (HPC).
Setting [4] is: dose: 6.25 mg/kg/injection, schedule: Q01DX009 (ip), vehicle: saline with Tween-80.
The mark [5] stands for this setting: dose: 12.5 mg/kg/injection, schedule: Q01DX009 (ip), vehicle: saline with Tween-80.
Setting [6] is: dose: 25.0 mg/kg/injection, schedule: Q01DX009 (ip), vehicle: saline with Tween-80.
The mark [7] stands for this setting: dose: 200.0 mg/kg/injection, schedule: Q01DX009 (ip), vehicle: saline.
Setting [8] is: dose: 50.0 mg/kg/injection, schedule: Q01DX009 (ip), vehicle: saline with Tween-80.
The mark [9] stands for this setting: dose: 100.0 mg/kg/injection, schedule: Q01DX009 (ip), vehicle: saline with Tween-80.
Setting [10] is: dose: 200.0 mg/kg/injection, schedule: Q01DX009 (ip), vehicle: saline with Tween-80.
Setting [11] is: dose: 60.0 mg/kg/injection, schedule: Q01DX005 (ip), vehicle: saline with Tween-80.
The mark [12] stands for this setting: dose: 120.0 mg/kg/injection, schedule: Q01DX005 (ip), vehicle: saline with Tween-80.
Setting [13] is: dose: 240.0 mg/kg/injection, schedule: Q01DX005 (ip), vehicle: saline with Tween-80.
Setting [14] is: dose: 100.0 mg/kg/injection, schedule: Q01DX005 (ip), vehicle: saline with Tween-80.

Regarding `Cc1ccc(S(=O)(=O)OC(C#N)c2ccccc2)cc1` (centres undefined), the T/C by setting is: (dose: 50.0 mg/kg/injection, schedule: Q01DX009 (ip), vehicle: Klucel (hydroxypropylcellulose) (HPC)) 111 % of control; (dose: 100.0 mg/kg/injection, schedule: Q01DX009 (ip), vehicle: Klucel (hydroxypropylcellulose) (HPC)) 102 % of control; (dose: 200.0 mg/kg/injection, schedule: Q01DX009 (ip), vehicle: Klucel (hydroxypropylcellulose) (HPC)) 100 % of control; (dose: 400.0 mg/kg/injection, schedule: Q01DX009 (ip), vehicle: Klucel (hydroxypropylcellulose) (HPC)) 106 % of control.
Take `CNC(=O)OCc1c(COC(=O)NC)c(-c2ccc([N+](=O)[O-])cc2)n(C)c1C`: the T/C (dose: 6.25 mg/kg/injection, schedule: Q01DX009 (ip), vehicle: distilled water + Tween-80) is 151 % of control and 153 % of control; the T/C (dose: 12.5 mg/kg/injection, schedule: Q01DX009 (ip), vehicle: distilled water + Tween-80) is 159 % of control and 169 % of control.
For the molecule `CC(C)C1NC(=O)N(C2CCCCCC2)C1=O` (centres undefined), the T/C was 100 % of control under setting [1], 96 % of control under setting [2] and 100 % of control under setting [3].
Regarding `COc1ccccc1N=C(NC#N)C(c1ccccc1)c1ccccc1`, the T/C (dose: 100.0 mg/kg/injection, schedule: Q01DX001 (ip), vehicle: saline with Tween-80) was 99 % of control; the T/C (dose: 200.0 mg/kg/injection, schedule: Q01DX001 (ip), vehicle: saline with Tween-80) was 97 % of control; the T/C (dose: 400.0 mg/kg/injection, schedule: Q01DX001 (ip), vehicle: saline with Tween-80) was 93 % of control.
For `O=C1Nc2ccccc2C(O)(c2ccccc2)N1Cc1ccccc1` (centres undefined), the T/C by setting is: under setting [4], 91 % of control; under setting [5], 100 % of control; under setting [6], 88 % of control; under setting [7], 87 % of control.
As to `c1ccc2c3cc(cc2c1)OCCOCCOCCOCCOCCOc1ccc2ccccc2c1-3`, the T/C under setting [8] is 101 % of control, the T/C under setting [9] is 101 % of control and the T/C under setting [10] was 103 % of control.
As for `CC(C)NC(=S)NCc1ccc(Cl)c(Cl)c1`, the T/C runs as follows: (dose: 50.0 mg/kg/injection, schedule: Q01DX009 (ip), vehicle: other) 88 % of control; (dose: 100.0 mg/kg/injection, schedule: Q01DX009 (ip), vehicle: other) 96 % of control.
For `CCCCCCCCCCCCCCCC(=O)OC12CC(C)C3(O)C(C=C(CO)CC4(O)C(=O)C(C)=CC43)C1C2(C)CO` (centres undefined), the T/C reads like this: (dose: 0.03 mg/kg/injection, schedule: Q01DX009 (ip), vehicle: saline with Tween-80) 119 % of control; (dose: 0.06 mg/kg/injection, schedule: Q01DX009 (ip), vehicle: saline with Tween-80) 100 % of control; (dose: 0.9 micrograms/kg/injection, schedule: Q01DX009 (ip), vehicle: other) 100 % of control; (dose: 1.8 micrograms/kg/injection, schedule: Q01DX009 (ip), vehicle: other) 99 % of control; (dose: 3.7 micrograms/kg/injection, schedule: Q01DX009 (ip), vehicle: other) 101 % of control; (dose: 7.5 micrograms/kg/injection, schedule: Q01DX009 (ip), vehicle: other) 101 % of control. The T/C (dose: 15.0 micrograms/kg/injection, schedule: Q01DX009 (ip), vehicle: other) is 104 % of control and the T/C (dose: 30.0 micrograms/kg/injection, schedule: Q01DX009 (ip), vehicle: other) is 104 % of control.
Take `CCCn1c(=O)n(CC)c(=O)c2[nH]c(Cl)nc21`: the T/C is 100 % of control and 105 % of control (dose: 16.0 mg/kg/injection, schedule: Q01DX009 (ip), vehicle: Klucel (hydroxypropylcellulose) (HPC)); 102 % of control and 105 % of control (dose: 32.0 mg/kg/injection, schedule: Q01DX009 (ip), vehicle: Klucel (hydroxypropylcellulose) (HPC)); 108 % of control and 112 % of control (dose: 64.0 mg/kg/injection, schedule: Q01DX009 (ip), vehicle: Klucel (hydroxypropylcellulose) (HPC)).
Consider `Cc1cc(C)n(-c2ccc(N(CCO)CCO)nn2)n1`, for which the T/C is 93 % of control (dose: 75.0 mg/kg/injection, schedule: Q01DX005 (ip), vehicle: other); 88 % of control (dose: 150.0 mg/kg/injection, schedule: Q01DX005 (ip), vehicle: other); 103 % of control (dose: 250.0 mg/kg/injection, schedule: Q01DX005 (oral), vehicle: water); 93 % of control (dose: 300.0 mg/kg/injection, schedule: Q01DX005 (ip), vehicle: other); 116 % of control (dose: 500.0 mg/kg/injection, schedule: Q01DX005 (oral), vehicle: water); 99 % of control (dose: 1000.0 mg/kg/injection, schedule: Q01DX005 (oral), vehicle: water).
Regarding `Cc1cc(=O)oc2c(-c3ccccc3)nnc(Cl)c12`, the T/C reads like this: (dose: 60.0 mg/kg/injection, schedule: Q01DX005 (ip), vehicle: Klucel (hydroxypropylcellulose) (HPC)) 98 % of control; (dose: 120.0 mg/kg/injection, schedule: Q01DX005 (ip), vehicle: Klucel (hydroxypropylcellulose) (HPC)) 96 % of control; (dose: 240.0 mg/kg/injection, schedule: Q01DX005 (ip), vehicle: Klucel (hydroxypropylcellulose) (HPC)) 95 % of control.
Take `COC(=O)CN1CC1`: the T/C (dose: 3.12 mg/kg/injection, schedule: Q01DX009 (ip), vehicle: saline with Tween-80) was 100 % of control; the T/C under setting [4] is 95 % of control; the T/C under setting [5] was 94 % of control; the T/C under setting [6] was 95 % of control.
In the case of `COc1nc(Cl)nc(OC)n1`, the T/C under setting [10] is 86 % of control.
Regarding `ClC(Cl)(Cl)Cl`, the T/C reads like this: (dose: 0.37 % in 0.5 ml injection vol, schedule: Q01DX009 (ip), vehicle: water) 103 % of control; (dose: 0.75 % in 0.5 ml injection vol, schedule: Q01DX009 (ip), vehicle: water) 103 % of control; (dose: 1.5 % in 0.5 ml injection vol, schedule: Q01DX009 (ip), vehicle: water) 104 % of control.
For `CCCCCCCOC(=O)c1cc2cc(C(CC)C(CC)c3ccc(O)cc3)ccc2oc1=O` (centres undefined), the T/C is, setting by setting: under setting [11], 105 % of control; under setting [12], 92 % of control; under setting [13], 95 % of control.
Turning to `O=c1c2ccccc2nc2n1CCc1c-2[nH]c2ccccc12`, the T/C by setting is: (dose: 3.75 mg/kg/injection, schedule: Q01DX009 (ip), vehicle: saline with Tween-80) 93 % of control; (dose: 7.5 mg/kg/injection, schedule: Q01DX009 (ip), vehicle: saline with Tween-80) 98 % of control; (dose: 15.0 mg/kg/injection, schedule: Q01DX009 (ip), vehicle: saline with Tween-80) 93 % of control.
For `CN(C)C1C(=O)C(C(N)=O)=C(O)C2(O)C(=O)C3=C(O)c4c(O)cccc4C(C)(O)C3CC12.[Cl][Sb]([Cl])[Cl]` (centres undefined), the T/C (dose: 50.0 mg/kg/injection, schedule: Q01DX005 (ip), vehicle: saline with Tween-80) was 119 % of control and the T/C under setting [14] is 108 % of control.
With `O=C(O)c1cc2ccccc2[nH]c1=O`, the T/C reads like this: under setting [1], 97 % of control; under setting [2], 97 % of control; under setting [3], 104 % of control.
For `c1ccc(-n2ncc3ccc4cccn4c32)cc1`, the T/C is 108 % of control under setting [11], 111 % of control under setting [12] and 120 % of control under setting [13].
Regarding `O=S(=O)(CCl)NCCCl`, the T/C by setting is: under setting [8], 100 % of control; under setting [9], 106 % of control; under setting [10], 106 % of control.
Consider `O=S(=O)(Nc1ccnn1-c1ccccc1)c1ccc(N=Cc2c3ccccc3nc3cc(Cl)ccc23)cc1`, for which the T/C reads like this: under setting [11], 94 % of control; under setting [12], 91 % of control; under setting [13], 102 % of control.
On to `CCc1nc(N)nc(N)c1-c1ccc([N+](=O)[O-])c(Cl)c1`, for which the T/C by setting is: under setting [14], 152 % of control; (dose: 200.0 mg/kg/injection, schedule: Q01DX005 (ip), vehicle: saline with Tween-80) 93 % of control.
With `CCOC(=O)CS(=O)(=O)CCCCCCCCCCS(=O)(=O)CC(=O)OCC`, the T/C (dose: 50.0 mg/kg/injection, schedule: Q01DX009 (ip), vehicle: saline) is 102 % of control; the T/C (dose: 100.0 mg/kg/injection, schedule: Q01DX009 (ip), vehicle: saline) was 99 % of control; the T/C under setting [7] is 89 % of control.
